Measurements: the supplement of paper PMC10307832

Columns and labels:
Experiment in all cases: relative viability (nuclei count vs DMSO), 5 days (fraction); higher = more cells survive
XMD13-2 = compound: C1CC1C(=O)NC2=NNC3=C2C=CC(=C3)C4=CC(=CC=C4)C(=O)NC5CC5 [XMD13-2]
Summary of the method: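 In 1536-well plates, lung cancer cell lines rested overnight at 37 °C before five library-drug doses (not always all listed), √10 apart, were pinned onto vehicle-anchored plates. Nuclei were counted with MetaXpress from 4× Hoechst images taken after 5 days without medium change. Viability compares treated-well with vehicle-well nuclei as a median over plates, and plates needed control CV below 25% plus at least one doubling to pass.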

ALW-II-49-7 + Pictilisib = compound: Cc1ccc(C(=O)Nc2cccc(C(F)(F)F)c2)cc1Nc1cncc(C(N)=O)c1 [ALW-II-49-7] + CS(=O)(=O)N1CCN(Cc2cc3nc(-c4cccc5[nH]ncc45)nc(N4CCOCC4)c3s2)CC1 [Pictilisib] (partner 1 µM)
Summary of the method: (§1)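 Five library-drug doses in √10 steps were combined with a fixed anchor-drug dose, or a single drug was given alone, by pin tool to lung cancer cell lines in 1536-well plates the day after seeding. Nuclei were stained and counted after 5 days. Relative viability is the nuclei count in treated wells over that in vehicle wells, taken as the median of duplicate plates.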

ALW-II-49-7 + Linsitinib = compound: Cc1ccc(C(=O)Nc2cccc(C(F)(F)F)c2)cc1Nc1cncc(C(N)=O)c1 [ALW-II-49-7] + C[C@]1(O)C[C@@H](c2nc(-c3ccc4ccc(-c5ccccc5)nc4c3)c3c(N)nccn32)C1 [Linsitinib] (partner 1 µM)
Summary of the method: as §1

Dasatinib + AZD7762 = compound: Cc1nc(Nc2ncc(C(=O)Nc3c(C)cccc3Cl)s2)cc(N2CCN(CCO)CC2)n1 [Dasatinib] + NC(=O)Nc1cc(-c2cccc(F)c2)sc1C(=O)N[C@H]1CCCNC1 [AZD7762] (partner 0.2 µM)
Summary of the method: as §1

Row | Cell Line | relative viability (XMD13-2; 0.05 µM) | relative viability (XMD13-2; 0.1581 µM) | relative viability (XMD13-2; 0.5 µM) | relative viability (XMD13-2; 1.581 µM) | relative viability (XMD13-2; 5 µM) | relative viability (ALW-II-49-7 + Pictilisib; first compound 0.08 µM) | relative viability (ALW-II-49-7 + Pictilisib; first compound 0.253 µM) | relative viability (ALW-II-49-7 + Pictilisib; first compound 0.8 µM) | relative viability (ALW-II-49-7 + Pictilisib; first compound 2.53 µM) | relative viability (ALW-II-49-7 + Pictilisib; first compound 8 µM) | relative viability (ALW-II-49-7 + Linsitinib; first compound 0.08 µM) | relative viability (ALW-II-49-7 + Linsitinib; first compound 0.253 µM) | relative viability (ALW-II-49-7 + Linsitinib; first compound 0.8 µM) | relative viability (ALW-II-49-7 + Linsitinib; first compound 2.53 µM) | relative viability (ALW-II-49-7 + Linsitinib; first compound 8 µM) | relative viability (Dasatinib + AZD7762; first compound 0.005 µM) | relative viability (Dasatinib + AZD7762; first compound 0.01581 µM) | relative viability (Dasatinib + AZD7762; first compound 0.05 µM) | relative viability (Dasatinib + AZD7762; first compound 0.1581 µM) | relative viability (Dasatinib + AZD7762; first compound 0.5 µM)
1 | NCI-H441 | 1.19 | 1.08 | 0.968 | 0.96 | 0.771 | 0.439 | 0.382 | 0.49 | 0.458 | 0.378 | 0.529 | 0.61 | 0.432 | 0.496 | 0.508 | 1.27 | 1.01 | 0.904 | 0.723 | 0.364
2 | ABC-1 | 1.02 | 0.873 | 1.01 | 0.745 | 0.472 | 0.879 | 0.761 | 0.811 | 0.79 | 0.689 | 0.87 | 0.85 | 0.676 | 0.885 | 0.765 | 0.74 | 0.689 | 0.758 | 0.747 | 0.383
3 | NCI-H2126 | 1.02 | 0.949 | 1.02 | 1.03 | 1.03 | 0.493 | 0.473 | 0.514 | 0.471 | 0.502 | 0.656 | 0.733 | 0.746 | 0.7 | 0.717 | 0.971 | 0.847 | 0.98 | 0.885 | 0.511
4 | RERF-LC-KJ | 1.08 | 0.942 | 1.05 | 0.938 | 0.912 | 0.599 | 0.557 | 0.608 | 0.542 | 0.624 | 0.884 | 0.898 | 0.873 | 0.905 | 0.888 | 1.06 | 0.824 | 0.889 | 0.761 | 0.6
5 | NCI-H1666 | 1.05 | 1.05 | 0.997 | 0.994 | 0.964 | 0.639 | 0.578 | 0.406 | 0.477 | 0.501 | 0.81 | 0.794 | 0.81 | 0.842 | 0.781 | 0.852 | 0.685 | 0.762 | 0.622 | 0.411
6 | PC-14 | 1.08 | 1.04 | 1.07 | 0.98 | 1.13 | 0.602 | 0.599 | 0.696 | 0.544 | 0.553 | 0.933 | 0.821 | 0.933 | 0.979 | 0.94 | 0.405 | 0.468 | 0.34 | 0.401 | 0.112
7 | NCI-H1915 | 1.02 | 0.958 | 1.08 | 0.985 | 1 | 0.945 | 1.18 | 0.966 | 0.818 | 0.645 | 1.13 | 1.13 | 1.09 | 1 | 0.825 | 0.693 | 0.616 | 0.509 | 0.21 | 0.212
8 | NCI-H1703 | 1.29 | 1.33 | 1.05 | 0.764 | 1.06 | 0.239 | 0.241 | 0.212 | 0.203 | 0.205 | 0.564 | 0.78 | 0.567 | 0.277 | 0.224 | 0.128 | 0.121 | 0.139 | 0.116 | 0.13
